Measured values as given in the supplement of paper PMC12406974.

Assays:
Test in all cases: maximum observed lethal fraction; higher = more cell death
U2OS BAX/BAK1 DKO = tested on: U2OS BAX/BAK1 DKO
U2OS BCL2L12-KO = tested on: U2OS BCL2L12-KO
U2OS PTBP1-KO = tested on: U2OS PTBP1-KO
U2OS = tested on: U2OS
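Further: FLICK assay: SYTOX Green fluorescence of dead cells tracked over time after drugging in 96-well plates, with total cell counts taken from Triton X-100 lysed wells.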

Row | SMILES | maximum observed lethal fraction (U2OS BAX/BAK1 DKO; 0.0316 µM) | maximum observed lethal fraction (U2OS BAX/BAK1 DKO; 0.1 µM) | maximum observed lethal fraction (U2OS BAX/BAK1 DKO; 0.316 µM) | maximum observed lethal fraction (U2OS BAX/BAK1 DKO; 1 µM) | maximum observed lethal fraction (U2OS BAX/BAK1 DKO; 3.16 µM) | maximum observed lethal fraction (U2OS BAX/BAK1 DKO; 10 µM) | maximum observed lethal fraction (U2OS BCL2L12-KO; 0.0316 µM) | maximum observed lethal fraction (U2OS BCL2L12-KO; 0.1 µM) | maximum observed lethal fraction (U2OS BCL2L12-KO; 0.316 µM) | maximum observed lethal fraction (U2OS BCL2L12-KO; 1 µM) | maximum observed lethal fraction (U2OS BCL2L12-KO; 3.16 µM) | maximum observed lethal fraction (U2OS BCL2L12-KO; 10 µM) | maximum observed lethal fraction (U2OS PTBP1-KO; 0.0316 µM) | maximum observed lethal fraction (U2OS PTBP1-KO; 0.1 µM) | maximum observed lethal fraction (U2OS PTBP1-KO; 0.316 µM) | maximum observed lethal fraction (U2OS PTBP1-KO; 1 µM) | maximum observed lethal fraction (U2OS; 0.0316 µM) | maximum observed lethal fraction (U2OS; 0.1 µM) | maximum observed lethal fraction (U2OS; 0.316 µM) | maximum observed lethal fraction (U2OS; 1 µM) | further results
1 | Nc1ccc(-c2ccc3ncc4ccc(=O)n(-c5cccc(C(F)(F)F)c5)c4c3c2)cn1 [Torin2] | 0.0705 | 0.0756 | 0.0765 | 0.0833 | 0.0776 | 0.0881 | 0.104 | 0.181 | 0.249 | 0.362 | 0.467 | 0.629 | 0.0906 | 0.107 | 0.196 | 0.276 | 0.0812 | 0.0904 | 0.197 | 0.299 | maximum observed lethal fraction (U2OS BAX/BAK1 DKO; 31.6 µM): 0.272; maximum observed lethal fraction (U2OS BCL2L12-KO; 31.6 µM): 0.443; maximum observed lethal fraction (U2OS PTBP1-KO; 3.16 µM): 0.363; maximum observed lethal fraction (U2OS PTBP1-KO; 10 µM): 0.436; maximum observed lethal fraction (U2OS PTBP1-KO; 31.6 µM): 0.421; maximum observed lethal fraction (U2OS; 3.16 µM): 0.435; maximum observed lethal fraction (U2OS; 10 µM): 0.589; maximum observed lethal fraction (U2OS; 31.6 µM): 0.396
2 | CC(=O)N[C@H]1[C@@H](O[C@@H]2O[C@H](CC(O)[C@H]3O[C@@H](n4ccc(=O)[nH]c4=O)[C@H](O)[C@@H]3O)[C@H](O)[C@H](O)[C@H]2NC(=O)/C=C/CC(C)C)O[C@H](CO)[C@@H](N)[C@@H]1O (stereo partly specified) [Tunicamycin] | 0.0546 | 0.0609 | 0.0665 | 0.0788 | 0.089 | 0.0844 | 0.0693 | 0.0857 | 0.196 | 0.58 | 0.86 | 0.873 | 0.0731 | 0.0724 | 0.0808 | 0.104 | 0.0561 | 0.0662 | 0.0886 | 0.347 | maximum observed lethal fraction (U2OS BAX/BAK1 DKO; 0.01 µM): 0.0556; maximum observed lethal fraction (U2OS BCL2L12-KO; 0.01 µM): 0.0673; maximum observed lethal fraction (U2OS PTBP1-KO; 0.01 µM): 0.0696; maximum observed lethal fraction (U2OS PTBP1-KO; 3.16 µM): 0.345; maximum observed lethal fraction (U2OS PTBP1-KO; 10 µM): 0.533; maximum observed lethal fraction (U2OS; 0.01 µM): 0.0548; maximum observed lethal fraction (U2OS; 3.16 µM): 0.692; maximum observed lethal fraction (U2OS; 10 µM): 0.82
3 | CC(=O)[C@]1(O)Cc2c(O)c3c(c(O)c2[C@@H](O[C@H]2C[C@H](N)[C@H](O)[C@H](C)O2)C1)C(=O)c1ccccc1C3=O [Idarubicin] | 0.0871 | 0.212 | 0.18 | 0.193 |  |  | 0.231 | 0.74 | 0.724 | 0.321 |  |  | 0.2 | 0.633 | 0.589 | 0.305 | 0.166 | 0.666 | 0.792 | 0.604 | maximum observed lethal fraction (U2OS BAX/BAK1 DKO; 0.001 µM): 0.0756; maximum observed lethal fraction (U2OS BAX/BAK1 DKO; 0.00316 µM): 0.0795; maximum observed lethal fraction (U2OS BAX/BAK1 DKO; 0.01 µM): 0.0849; maximum observed lethal fraction (U2OS BCL2L12-KO; 0.001 µM): 0.0766; maximum observed lethal fraction (U2OS BCL2L12-KO; 0.00316 µM): 0.088; maximum observed lethal fraction (U2OS BCL2L12-KO; 0.01 µM): 0.0897; maximum observed lethal fraction (U2OS PTBP1-KO; 0.001 µM): 0.077; maximum observed lethal fraction (U2OS PTBP1-KO; 0.00316 µM): 0.0792; maximum observed lethal fraction (U2OS PTBP1-KO; 0.01 µM): 0.0832; maximum observed lethal fraction (U2OS; 0.001 µM): 0.0637; maximum observed lethal fraction (U2OS; 0.00316 µM): 0.0722; maximum observed lethal fraction (U2OS; 0.01 µM): 0.0707
4 | Cc1[nH]c2ccccc2c1CCNCc1ccc(/C=C/C(=O)NO)cc1 [Panobinostat] | 0.102 | 0.108 | 0.0953 | 0.0939 |  |  | 0.775 | 0.856 | 0.838 | 0.895 |  |  | 0.527 | 0.601 | 0.603 | 0.65 | 0.655 | 0.761 | 0.802 | 0.851 | maximum observed lethal fraction (U2OS BAX/BAK1 DKO; 0.001 µM): 0.0715; maximum observed lethal fraction (U2OS BAX/BAK1 DKO; 0.00316 µM): 0.0768; maximum observed lethal fraction (U2OS BAX/BAK1 DKO; 0.01 µM): 0.0894; maximum observed lethal fraction (U2OS BCL2L12-KO; 0.001 µM): 0.0774; maximum observed lethal fraction (U2OS BCL2L12-KO; 0.00316 µM): 0.0897; maximum observed lethal fraction (U2OS BCL2L12-KO; 0.01 µM): 0.352; maximum observed lethal fraction (U2OS PTBP1-KO; 0.001 µM): 0.0914; maximum observed lethal fraction (U2OS PTBP1-KO; 0.00316 µM): 0.11; maximum observed lethal fraction (U2OS PTBP1-KO; 0.01 µM): 0.349; maximum observed lethal fraction (U2OS; 0.001 µM): 0.0735; maximum observed lethal fraction (U2OS; 0.00316 µM): 0.0836; maximum observed lethal fraction (U2OS; 0.01 µM): 0.265
5 | NC(=O)c1cccc2cn(-c3ccc([C@@H]4CCCNC4)cc3)nc12 [Niraparib] |  | 0.0556 | 0.0569 | 0.065 | 0.0723 | 0.0787 |  | 0.0692 | 0.0678 | 0.0775 | 0.0795 | 0.0934 |  | 0.0698 | 0.0678 | 0.0749 |  | 0.0543 | 0.0611 | 0.0677 | maximum observed lethal fraction (U2OS BAX/BAK1 DKO; 31.6 µM): 0.342; maximum observed lethal fraction (U2OS BAX/BAK1 DKO; 100 µM): 0.936; maximum observed lethal fraction (U2OS BCL2L12-KO; 31.6 µM): 0.86; maximum observed lethal fraction (U2OS BCL2L12-KO; 100 µM): 0.928; maximum observed lethal fraction (U2OS PTBP1-KO; 3.16 µM): 0.0795; maximum observed lethal fraction (U2OS PTBP1-KO; 10 µM): 0.0839; maximum observed lethal fraction (U2OS PTBP1-KO; 31.6 µM): 0.396; maximum observed lethal fraction (U2OS PTBP1-KO; 100 µM): 0.964; maximum observed lethal fraction (U2OS; 3.16 µM): 0.067; maximum observed lethal fraction (U2OS; 10 µM): 0.0744; maximum observed lethal fraction (U2OS; 31.6 µM): 0.716; maximum observed lethal fraction (U2OS; 100 µM): 0.968
6 | CC(C)C[C@@H](C=O)NC(=O)[C@H](CC(C)C)NC(=O)[C@H](CC(C)C)NC(=O)OCc1ccccc1 [MG132] | 0.0549 | 0.0687 | 0.0897 | 0.337 | 0.434 | 0.384 | 0.07 | 0.0753 | 0.327 | 0.817 | 0.914 | 0.972 | 0.0706 | 0.0708 | 0.182 | 0.683 | 0.0568 | 0.0844 | 0.698 | 0.86 | maximum observed lethal fraction (U2OS BAX/BAK1 DKO; 0.01 µM): 0.0534; maximum observed lethal fraction (U2OS BCL2L12-KO; 0.01 µM): 0.0715; maximum observed lethal fraction (U2OS PTBP1-KO; 0.01 µM): 0.0698; maximum observed lethal fraction (U2OS PTBP1-KO; 3.16 µM): 0.813; maximum observed lethal fraction (U2OS PTBP1-KO; 10 µM): 0.923; maximum observed lethal fraction (U2OS; 0.01 µM): 0.0559; maximum observed lethal fraction (U2OS; 3.16 µM): 0.893; maximum observed lethal fraction (U2OS; 10 µM): 0.926
7 | CC[C@@]1(O)C(=O)OCc2c1cc1n(c2=O)Cc2cc3ccccc3nc2-1 [Camptothecin] | 0.0659 | 0.0708 | 0.0816 | 0.0795 | 0.0879 | 0.0915 | 0.083 | 0.0852 | 0.101 | 0.307 | 0.664 | 0.8 | 0.0841 | 0.0812 | 0.0849 | 0.107 | 0.0661 | 0.0732 | 0.0916 | 0.379 | maximum observed lethal fraction (U2OS BAX/BAK1 DKO; 0.01 µM): 0.0607; maximum observed lethal fraction (U2OS BCL2L12-KO; 0.01 µM): 0.0758; maximum observed lethal fraction (U2OS PTBP1-KO; 0.01 µM): 0.0712; maximum observed lethal fraction (U2OS PTBP1-KO; 3.16 µM): 0.295; maximum observed lethal fraction (U2OS PTBP1-KO; 10 µM): 0.328; maximum observed lethal fraction (U2OS; 0.01 µM): 0.0607; maximum observed lethal fraction (U2OS; 3.16 µM): 0.625; maximum observed lethal fraction (U2OS; 10 µM): 0.786
